Results as given in US12202827B2, “Aldosterone synthase inhibitor” (DAMIAN PHARMA AG, priority 2016, dated 2025).
Read-outs that look alike come from different tables or passages of the source.

What was measured:
[1] = Hygroscopicity, open flasks in unconditioned ambient air for 24 hours; conditions: open flask
Experimental: 100 mg samples of the two crystalline salts were stored in open flasks for 24 hours side by side at room temperature in unconditioned ambient air and weight measurements occurred at time 0 and after 24 hours (Table 6).

[2] = Shake-flask solubility study; conditions: 20° C.
[3] = not given; remark: listed apart in the source
[4] = remark: listed apart in the source
Experimental: The X-ray powder diffraction studies were performed using a Bruker AXS D2 PHASER in Bragg-Brentano configuration. Using a Cu anode at 30 kV, 10 mA; sample stage standard rotating; monochromatisation by a Kβ-filter (0.5% Ni). Slits: fixed divergence slits 1.0 mm (=0.61°), primary axial Soller slit 2.5°, secondary axial Soller slit 2.5°. Detector: Linear detector LYNXEYE with receiving slit 5° detector opening. […] Measurement conditions: scan range 5 to 45° 2theta, sample rotation 5 rpm, 0.5 s/step, 0.010°/step, 3.0 mm detector slit; and all measuring conditions were logged in the instrument control file. As system suitability, corundum sample A26-826-S(NIST standard) was measured daily.

[5] = Dynamic Vapour Sorption (DVS); assay type: physicochemical
Experimental: The Dynamic Vapour Sorption (DVS) studies were performed using a Surface Measurement Systems Ltd. DVS-1 No Video. The sample was loaded into a balance pan, typically 20-30 mg, and equilibrated at 0% RH. After the material was dried, the RH was increased with 10% per step for 1 hour per increment, ending at 95% RH. After completion of the sorption cycle, the sample was dried using the same method. The software used for data collection was DVSWin v3.01 No Video. Data analysis was performed using DVS Standard Analysis Suite v6.3.0 (Standard).

[6] = Acetic acid, sample DF1181-5-S11
[7] = Acetonitrile, sample DF1181-5-S7
[8] = Dichloromethane, sample DF1181-5-S2
[9] = Ethyl acetate, sample DF1181-5-S5
[10] = Methyl tert-butyl ether, sample DF1181-5-S3

In the case of `N#Cc1ccc([C@H]2CCCc3cncn32)cc1.O=P(O)(O)O`, the “Hygroscopicity (assessment in words)” value ([1]; ambient air) is reported as “non-hygroscopic”, the Absolute weight ([1]; room temperature, unconditioned ambient air) is reported as 103.9 mg and the Weight increase ([1]; room temperature, unconditioned ambient air, listed as Phosphate Salt) is reported as 0.57%. The “Solubility” value [2, 6] was 118 to 1180 mg/mL, the “Solubility” value ([2]; Acetone, sample DF1181-5-S4) was <0.09 mg/mL and the “Solubility” value [2, 7] was <0.11 mg/mL. For the same compound, the “Solubility” value [2, 8] was <0.10 mg/mL, the “Solubility” value ([2]; Ethanol, sample DF1181-5-S6) was 0.1 to 1.0 mg/mL and the “Solubility” value [2, 9] was <0.09 mg/mL. For the same compound, the “Solubility” value ([2]; Methanol, sample DF1181-5-S1) was 112 to 1120 mg/mL, the “Solubility” value [2, 10] was <0.11 mg/mL and the “Solubility” value ([2]; Toluene, sample DF1181-5-S10) was <0.10 mg/mL. For the same compound, the “Solubility” value ([2]; Water, sample DF1181-5-S9) was >1000 mg/mL, the “Solubility” value ([2]; n-Heptane, sample DF1181-5-S8) was <0.11 mg/mL and the Appearance (25° C./60% RH, 1 month) was “White”. The “Chiral Purity” value (25° C./60% RH, 1 month) was >99.5, the “Polymorph by XRPD” value (25° C./60% RH, 1 month) was “Conform” and the “Purity by HPLC” value (25° C./60% RH, 1 month) was 99.77. For the same compound, the Water content (25° C./60% RH, 1 month) was 0.2, the Appearance (25° C./60% RH, 3 months) was “White” and the “Chiral Purity” value (25° C./60% RH, 3 months) was >99.5. For the same compound, the “Polymorph by XRPD” value (25° C./60% RH, 3 months) was “Conform”, the “Purity by HPLC” value (25° C./60% RH, 3 months) was 99.81 and the Water content (25° C./60% RH, 3 months) was 0.2. The Appearance (25° C./60% RH, 6 months) was “White”, the “Chiral Purity” value (25° C./60% RH, 6 months) was >99.5 and the “Polymorph by XRPD” value (25° C./60% RH, 6 months) was “Conform”. For the same compound, the “Purity by HPLC” value (25° C./60% RH, 6 months) was 99.82, the Water content (25° C./60% RH, 6 months) was 0.2 and the Appearance (25° C./60% RH, 9 months) was “White”. For the same compound, the “Chiral Purity” value (25° C./60% RH, 9 months) was >99.5, the “Polymorph by XRPD” value (25° C./60% RH, 9 months) was “Conform” and the “Purity by HPLC” value (25° C./60% RH, 9 months) was 99.84. For the same compound, the Water content (25° C./60% RH, 9 months) was 0.2, the Appearance (25° C./60% RH, 12 months) was “White” and the “Chiral Purity” value (25° C./60% RH, 12 months) was >99.5. The “Polymorph by XRPD” value (25° C./60% RH, 12 months) was “Conform”, the “Purity by HPLC” value (25° C./60% RH, 12 months) was 99.81 and the Water content (25° C./60% RH, 12 months) was 0.3. The Appearance (25° C./60% RH, Initial) was “White”, the “Chiral Purity” value (25° C./60% RH, Initial) was >99.5 and the “Polymorph by XRPD” value (25° C./60% RH, Initial) was “Conform”. For the same compound, the “Purity by HPLC” value (25° C./60% RH, Initial) was 99.87, the Water content (25° C./60% RH, Initial) was 0.3 and the Appearance (30° C./65%RH, 1 month) was “White”. The “Chiral Purity” value (30° C./65%RH, 1 month) was >99.5, the “Polymorph by XRPD” value (30° C./65%RH, 1 month) was “Conform” and the “Purity by HPLC” value (30° C./65%RH, 1 month) was 99.76. The Water content (30° C./65%RH, 1 month) was 0.2, the Appearance (30° C./65%RH, 3 months) was “White” and the “Chiral Purity” value (30° C./65%RH, 3 months) was >99.5. For the same compound, the “Polymorph by XRPD” value (30° C./65%RH, 3 months) was “Conform”, the “Purity by HPLC” value (30° C./65%RH, 3 months) was 99.81 and the Water content (30° C./65%RH, 3 months) was 0.3. For the same compound, the Appearance (30° C./65%RH, 6 months) was “White”, the “Chiral Purity” value (30° C./65%RH, 6 months) was >99.5 and the “Polymorph by XRPD” value (30° C./65%RH, 6 months) was “Conform”. The “Purity by HPLC” value (30° C./65%RH, 6 months) was 99.84, the Water content (30° C./65%RH, 6 months) was 0.2 and the Appearance (30° C./65%RH, 9 months) was “White”. The “Chiral Purity” value (30° C./65%RH, 9 months) was >99.5, the “Polymorph by XRPD” value (30° C./65%RH, 9 months) was “Conform” and the “Purity by HPLC” value (30° C./65%RH, 9 months) was 99.86. For the same compound, the Water content (30° C./65%RH, 9 months) was 0.2, the Appearance (30° C./65%RH, 12 months) was “White” and the “Chiral Purity” value (30° C./65%RH, 12 months) was >99.5. The “Polymorph by XRPD” value (30° C./65%RH, 12 months) was “Conform”, the “Purity by HPLC” value (30° C./65%RH, 12 months) was 99.85 and the Water content (30° C./65%RH, 12 months) was 0.3. For the same compound, the Appearance (30° C./65%RH, Initial) was “White”, the “Chiral Purity” value (30° C./65%RH, Initial) was >99.5 and the “Polymorph by XRPD” value (30° C./65%RH, Initial) was “Conform”. For the same compound, the “Purity by HPLC” value (30° C./65%RH, Initial) was 99.87, the Water content (30° C./65%RH, Initial) was 0.3 and the Appearance (40° C./75% RH, 1 month) was “White”. For the same compound, the “Chiral Purity” value (40° C./75% RH, 1 month) was >99.5, the “Polymorph by XRPD” value (40° C./75% RH, 1 month) was “Conform” and the “Purity by HPLC” value (40° C./75% RH, 1 month) was 99.80. The Water content (40° C./75% RH, 1 month) was 0.3, the Appearance (40° C./75% RH, 3 months) was “White” and the “Chiral Purity” value (40° C./75% RH, 3 months) was >99.5. For the same compound, the “Polymorph by XRPD” value (40° C./75% RH, 3 months) was “Conform”, the “Purity by HPLC” value (40° C./75% RH, 3 months) was 99.79 and the Water content (40° C./75% RH, 3 months) was 0.5. The Appearance (40° C./75% RH, 6 months) was “White”, the “Chiral Purity” value (40° C./75% RH, 6 months) was >99.5 and the “Polymorph by XRPD” value (40° C./75% RH, 6 months) was “Conform”. For the same compound, the “Purity by HPLC” value (40° C./75% RH, 6 months) was 99.88, the Water content (40° C./75% RH, 6 months) was 0.3 and the Appearance (40° C./75% RH, Initial) was “White”. For the same compound, the “Chiral Purity” value (40° C./75% RH, Initial) was >99.5, the “Polymorph by XRPD” value (40° C./75% RH, Initial) was “Conform” and the “Purity by HPLC” value (40° C./75% RH, Initial) was 99.87. The Water content (40° C./75% RH, Initial) was 0.3, the “Long-term stability (purity, water content, chiral purity), in words” value (all assessed stability conditions and time periods) was “very stable” and the “XRPD (polymorphic form)” value ([3]; wells 1-6, solvent Formic acid, co-solvent Water) was “Form I”. The “XRPD (polymorphic form)” value ([3]; wells 7-12, solvent 2-Butanone, co-solvent n-Heptane) was “Form I”, the “XRPD (polymorphic form)” value ([3]; wells 13-18, solvent Acetic acid, co-solvent Water) was “Form I” and the “XRPD (polymorphic form)” value ([3]; wells 19-24, solvent Cyclohexanone, co-solvent n-Heptane) was “Form I”. For the same compound, the “XRPD (polymorphic form)” value ([3]; wells 25-30, solvent Methanol, co-solvent Water) was “Form I”, the “XRPD (polymorphic form)” value ([3]; wells 31-36, solvent Ethylacetate, co-solvent n-Heptane) was “Form I” and the “XRPD (polymorphic form)” value ([3]; wells 37-42, solvent Ethanol, co-solvent Water) was “Form I”. The “XRPD (polymorphic form)” value ([3]; wells 43-48, solvent Isopropyl acetate, co-solvent n-Heptane) was “Form I”, the “XRPD (polymorphic form)” value ([3]; wells 49-54, solvent 2-Propanol, co-solvent Water) was “Form I” and the “XRPD (polymorphic form)” value ([3]; wells 55-60, solvent Cyclopentyl methyl ether, co-solvent n-Heptane) was “Form I”. For the same compound, the “XRPD (polymorphic form)” value ([3]; wells 61-66, solvent Acetone, co-solvent Water) was “Form I”, the “XRPD (polymorphic form)” value ([3]; wells 67-72, solvent Toluene, co-solvent n-Heptane) was “Form I” and the “XRPD (polymorphic form)” value ([3]; wells 79-84, solvent Cyclohexane, co-solvent n-Heptane) was “Form I”. For the same compound, the “XRPD (polymorphic form)” value ([3]; wells 85-90, solvent Tetrahydrofuran, co-solvent Water) was “Form I”, the “XRPD (polymorphic form)” value ([3]; wells 91-96, solvent Chlorobenzene, co-solvent n-Heptane) was “Form I” and the “XRPD after solubility determination” value [4, 6] was “Amorphous”. The “XRPD after solubility determination” value ([4]; Acetone, sample DF1181-5-S4) was “Form I-Conform starting material”, the “XRPD after solubility determination” value [4, 7] was “Form I-Conform starting material” and the “XRPD after solubility determination” value [4, 8] was “Form I-Conform starting material”. For the same compound, the “XRPD after solubility determination” value ([4]; Ethanol, sample DF1181-5-S6) was “Form I-Conform starting material”, the “XRPD after solubility determination” value [4, 9] was “Form I-Conform starting material” and the “XRPD after solubility determination” value ([4]; Methanol, sample DF1181-5-S1) was “Form I-Conform starting material”. The “XRPD after solubility determination” value [4, 10] was “Form I-Conform starting material”, the “XRPD after solubility determination” value ([4]; Toluene, sample DF1181-5-S10) was “Form I-Conform starting material” and the “XRPD after solubility determination” value ([4]; Water, sample DF1181-5-S9) was “Form I-Conform starting material”. For the same compound, the “XRPD after solubility determination” value ([4]; n-Heptane, sample DF1181-5-S8) was “Form I-Conform starting material”, the “Reversibility of water uptake” value ([5]; DVS sorption/desorption cycles) was “reversible” and the “Crystalline form upon DVS treatment (XRPD)” value ([5]; before and after DVS cycles) was “does not change”.
